According to paper PMC4756062 (Clinical Pharmacokinetics, 2015):
Entries after “also recorded” stand apart in the source; their conditions may differ. Read-outs that look alike come from different tables or passages of the source.

Assays:
[1] = assay type: in vivo, human (breast cancer patients); conditions: for AUC(0-t): AUC0–24, plasma; for C trough: concentration before dosing; for C trough / C trough, ratio of weak to potent CYP2D6-inhibiting SSRI: 10 patients
[2] = Adverse effects recorded during the antidepressant switch study; assay type: in vivo, human (breast cancer patients)
[3] = after versus before the switch, median (range)
[4] = female, human, plasma, tamoxifen + potent CYP2D6-inhibiting SSRI (paroxetine or fluoxetine), median (range), dose corrected to 20 mg tamoxifen
[5] = female, human, plasma, C max, plasma, tamoxifen + potent CYP2D6-inhibiting SSRI (paroxetine or fluoxetine), median (range), dose corrected to 20 mg tamoxifen
[6] = plasma, tamoxifen + potent CYP2D6-inhibiting SSRI (paroxetine or fluoxetine), median (range)
[7] = plasma, after versus before the switch, median (range)
[8] = plasma, switch from paroxetine/fluoxetine to escitalopram
[9] = tamoxifen + potent CYP2D6-inhibiting SSRI (paroxetine or fluoxetine), median (range)
[10] = plasma, tamoxifen + potent CYP2D6-inhibiting SSRI (paroxetine or fluoxetine), median (range), dose corrected to 20 mg tamoxifen

| Compound | AUC(0-t) [1, 4] [µM·h] | Cmax [1, 5] [nM] | C trough [1, 6] | AUC0–24, ratio of weak to potent CYP2D6-inhibiting SSRI [1, 7] | C max, ratio of weak to potent CYP2D6-inhibiting SSRI [1, 7] | C trough, ratio of weak to potent CYP2D6-inhibiting SSRI [1, 7] | other results |
| --- | --- | --- | --- | --- | --- | --- | --- |
| CC/C(=C(\c1ccc(O)cc1)c1ccc(OCCN(C)C)cc1)c1ccccc1 [4-OH-Tam, 4-hydroxytamoxifen] | 0.0638 | 3.46 | 2.47 (1.29–4.65) nM | 1.34 (0.88–1.87) | 1.42 (0.81–2.05) | 1.40 (0.82–2.06) | AUC0–24 ratio 4-OH-Tam to tamoxifen, ratio of weak to potent CYP2D6-inhibiting SSRI [1, 3]: 1.51 (1.08–1.67); AUC0–24 ratio 4-OH-Tam to tamoxifen, ratio of weak to potent CYP2D6-inhibiting SSRI ([1]; after versus before the switch, median (range), listed as 4-hydroxytamoxifen): ~ 1.5; Increase in AUC0–24 after the switch [1, 8]: 34%; Increase in Cmax after the switch [1, 8]: 42%; Increase in Ctrough after the switch [1, 8]: 40%; AUC0–24 ratio 4-OH-Tam to tamoxifen [1, 9]: 0.0109 (0.0053–0.014) |
| CC/C(=C(\c1ccc(O)cc1)c1ccc(OCCNC)cc1)c1ccccc1 [Endoxifen, 4-hydroxy-N-desmethyl-tamoxifen] | 0.0992 | 5.46 | 5.20 (3.48–10.6) nM |  | 2.96 (1.50–7.44) | 2.80 (1.02–6.33) | AUC0–24 ratio endoxifen to ND-Tam, ratio of weak to potent CYP2D6-inhibiting SSRI [1, 3]: 3.33 (1.56–5.37); Fold higher endoxifen exposure after the switch, single patient ([1]; one person using 40 mg tamoxifen (dose corrected to 20 mg)): 2.9 fold; C max, ratio of weak to potent CYP2D6-inhibiting SSRI ([1]; plasma, after versus before the switch, median (range), listed as endoxifen): ~ 3; AUC0–24 ratio endoxifen to ND-Tam [1, 9]: 0.0113 (0.0065–0.014); AUC0–24 ratio endoxifen to tamoxifen [1, 9]: 0.0213 (0.0057–0.029) |
| CC/C(=C(\c1ccccc1)c1ccc(OCCNC)cc1)c1ccccc1 [ND-Tam, N-desmethyltamoxifen] |  |  | 446 (306–807) nM | 1.09 (0.75–1.27) | 1.09 (0.77–1.75) | 0.97 (0.76–1.37) | AUC0–24 [1, 10]: 10,149 (7744–20,107) nM·h; Cmax [1, 10]: 528 nM |
| CC/C(=C(\c1ccccc1)c1ccc(OCCN(C)C)cc1)c1ccccc1 [Tamoxifen, reference compound] | 6.42 | 369 | 278 (128–557) nM |  |  |  |  |
| CN(C)CCC[C@@]1(c2ccc(F)cc2)OCc2cc(C#N)ccc21 [escitalopram, S-citalopram] |  |  |  |  |  |  | Hot flashes ([2]; tamoxifen-treated women, during co-administration): hot flashes were reported particularly during escitalopram co-administration; Safety of switching from paroxetine/fluoxetine to escitalopram (antidepressant-related adverse events, psychiatric relapse) ([2]; tamoxifen-treated women, escitalopram 10–20 mg/day, cross-tapering): safe and feasible; also recorded: No antidepressant-related adverse events or psychiatric relapse were noted; Discontinuation of treatment ([2]; ten tamoxifen-treated women): None of the ten women had to discontinue |
